According to patent publication US20250145633A1, “SUBSTITUTED FURANOPYRIMIDINE COMPOUNDS AS PDE1 INHIBITORS” (Dart NeuroScience, LLC, priority 2017, published 2025):

Biological target: human PDE1B enzyme (Homo sapiens (Human), UniProt Q01064)
Test: IMAP TR-FRET PDE1B enzymatic assay
Type: biochemical
Conditions: negative log of half-maximal molar inhibitory concentration, 200 nM FAM-cAMP, values given as bins; for IC50: read-out: PDE1b (pIC50) (converted)
How it was run: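 Full-length GST-tagged human PDE1B (250 pg/well) in IMAP BSA buffer with 10 U/ml calmodulin and 2.5 mM CaCl2; compound pre-incubated 5 min at room temperature, then 200 nM (final) FAM-cAMP for 30 min. IMAP binding reagent/Tb added, 1 h; TR-FRET 520/490 ratio read. IC50 from sigmoidal dose-response fit.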

For Cc1oc2ncnc(NC3(C)CC3)c2c1C(=O)N1CCOC(c2ccncc2)C1 (stereo not drawn) [Example 119, 6-Methyl-N-(1-methylcyclopropyl)-5-[2-(pyridin-4-yl)morpholine-4-carbonyl]furo[2,3-d]pyrimidin-4-amine], the IC50 was 100 to 1000 nM.

Compound Cc1oc2ncnc(NC3(C)CC3)c2c1C(=O)N1CCOC(c2cccnc2)C1 (stereo not drawn) [Example 120, 6-Methyl-N-(1-methylcyclopropyl)-5-[2-(pyridin-3-yl)morpholine-4-carbonyl]furo[2,3-d]pyrimidin-4-amine] has an IC50 of 100 to 1000 nM.

For Cc1oc2ncnc(NC3(C)CC3)c2c1C(=O)N1CCOC(c2cnn(C)c2)C1 (stereo not drawn) [Example 121, 6-Methyl-5-[2-(1-methyl-1H-pyrazol-4-yl)morpholine-4-carbonyl]-N-(1-methylcyclopropyl)furo[2,3-d]pyrimidin-4-amine], the IC50 was 100 to 1000 nM.

For Cc1oc2ncnc(NC3(C)CC3)c2c1C(=O)N1CCOC(c2ccc(F)cc2)C1 (stereo not drawn) [Example 122, 5-[2-(4-Fluorophenyl)morpholine-4-carbonyl]-6-methyl-N-(1-methylcyclopropyl)furo[2,3-d]pyrimidin-4-amine], the “PDE1b (pIC50)” value was >8.

COc1ccc(C2CN(C(=O)c3c(C)oc4ncnc(NC5(C)CC5)c34)CCO2)cc1 (stereo not drawn) [Example 123, 5-[2-(4-Methoxyphenyl)morpholine-4-carbonyl]-6-methyl-N-(1-methylcyclopropyl)furo[2,3-d]pyrimidin-4-amine] was tested, and the IC50 was 100 to 1000 nM.

Compound Cc1oc2ncnc(NC3(C)CC3)c2c1C(=O)NC1CC1 [Example 124, N-Cyclopropyl-6-methyl-4-[(1-methylcyclopropyl)amino]furo[2,3-d]pyrimidine-5-carboxamide] has an IC50 of 10 to 100 nM.

Cc1oc2ncnc(NC3(C)CC3)c2c1C(=O)NCCF [Example 125, N-(2-Fluoroethyl)-6-methyl-4-[(1-methylcyclopropyl)amino]furo[2,3-d]pyrimidine-5-carboxamide] was tested, and the IC50 was 10 to 100 nM.

In the case of Cc1oc2ncnc(NC3(C)CC3)c2c1C(=O)N[C@H]1C[C@H](F)C1 [Example 126, 6-Methyl-4-[(1-methylcyclopropyl)amino]-N-[(1R,3R)-3-fluorocyclobutyl]furo[2,3-d]pyrimidine-5-carboxamide], the IC50 is reported as 10 to 100 nM.

Work on Cc1oc2ncnc(NC3(C)CC3)c2c1C(=O)N[C@H]1C[C@@H](F)C1 [Example 127, 6-Methyl-4-[(1-methylcyclopropyl)amino]-N-[(1S,3S)-3-fluorocyclobutyl]furo[2,3-d]pyrimidine-5-carboxamide] yielded an IC50 of 100 to 1000 nM.

For Cc1oc2ncnc(NC3(C)CC3)c2c1C(=O)NC1CC(F)(F)C1 [Example 128, N-(3,3-Difluorocyclobutyl)-6-methyl-4-[(1-methylcyclopropyl)amino]furo[2,3-d]pyrimidine-5-carboxamide], the IC50 was 100 to 1000 nM.

Work on Cc1oc2ncnc(NC3(C)CC3)c2c1C(=O)NC1(C2CC2)CCOCC1 [Example 129, N-(4-Cyclopropyloxan-4-yl)-6-methyl-4-[(1-methylcyclopropyl)amino]furo[2,3-d]pyrimidine-5-carboxamide] yielded an IC50 of 10 to 100 nM.

In the case of Cc1oc2ncnc(NC3(C)CC3)c2c1C(=O)NC1(c2ccccc2)COC1 [Example 130, 6-Methyl-4-[(1-methylcyclopropyl)amino]-N-(3-phenyloxetan-3-yl)furo[2,3-d]pyrimidine-5-carboxamide], the IC50 is reported as 10 to 100 nM.

With Cc1oc2ncnc(NC3(C)CC3)c2c1C(=O)N1CCC(c2ccc(C(F)F)cc2)C1 (stereo not drawn) [Example 131, 5-{3-[4-(Difluoromethyl)phenyl]pyrrolidine-1-carbonyl}-6-methyl-N-(1-methylcyclopropyl)furo[2,3-d]pyrimidin-4-amine] the “PDE1b (pIC50)” value was >8.

For Cc1oc2ncnc(NC3(C)CC3)c2c1C(=O)N1CCC(F)(c2ccccc2)C1 (stereo not drawn) [Example 132, 5-(3-Fluoro-3-phenylpyrrolidine-1-carbonyl)-6-methyl-N-(1-methylcyclopropyl)furo[2,3-d]pyrimidin-4-amine], the “PDE1b (pIC50)” value was >8.

Cc1oc2ncnc(NC3(C)CC3)c2c1C(=O)N1CCC(F)(c2ccc(F)cc2)C1 (stereo not drawn) [Example 133, 5-[3-Fluoro-3-(4-fluorophenyl)pyrrolidine-1-carbonyl]-6-methyl-N-(1-methylcyclopropyl)furo[2,3-d]pyrimidin-4-amine] was tested, and the “PDE1b (pIC50)” value was >8.

Work on Cc1oc2ncnc(NC3(C)CC3)c2c1C(=O)NCCO [Example 134, N-(2-Hydroxyethyl)-6-methyl-4-[(1-methylcyclopropyl)amino]furo[2,3-d]pyrimidine-5-carboxamide] yielded an IC50 of 100 to 1000 nM.

With Cc1oc2ncnc(NC3(C)CC3)c2c1C(=O)NC(C)(C)CCO [Example 135, N-(4-Hydroxy-2-methylbutan-2-yl)-6-methyl-4-[(1-methylcyclopropyl)amino]furo[2,3-d]pyrimidine-5-carboxamide] the “PDE1b (pIC50)” value was >8.

In the case of Cc1oc2ncnc(NC3(C)CC3)c2c1C(=O)NC(C)C [Example 136, 6-Methyl-4-[(1-methylcyclopropyl)amino]-N-(propan-2-yl)furo[2,3-d]pyrimidine-5-carboxamide], the IC50 is reported as 10 to 100 nM.

For Cc1oc2ncnc(NC3(C)CC3)c2c1C(=O)NCC(C)C [Example 137, 6-Methyl-4-[(1-methylcyclopropyl)amino]-N-(2-methylpropyl)furo[2,3-d]pyrimidine-5-carboxamide], the IC50 was 10 to 100 nM.

Cc1oc2ncnc(NC3(C)CC3)c2c1C(=O)NC(C)(C)C [Example 138, N-tert-Butyl-6-methyl-4-[(1-methylcyclopropyl)amino]furo[2,3-d]pyrimidine-5-carboxamide] gave an IC50 of 10 to 100 nM.

With Cc1oc2ncnc(NC3(C)CC3)c2c1C(=O)NCC1CCOCC1 [Example 139, 6-Methyl-4-[(1-methylcyclopropyl)amino]-N-(oxan-4-ylmethyl)furo[2,3-d]pyrimidine-5-carboxamide] the IC50 was 10 to 100 nM.

For CCC1(NC(=O)c2c(C)oc3ncnc(NC4(C)CC4)c23)CCOCC1 [Example 140, N-(4-Ethyloxan-4-yl)-6-methyl-4-[(1-methylcyclopropyl)amino]furo[2,3-d]pyrimidine-5-carboxamide], the IC50 was 10 to 100 nM.

Cc1oc2ncnc(NC3(C)CC3)c2c1C(=O)Nc1cnn(C)c1 [Example 141, 6-Methyl-N-(1-methyl-1H-pyrazol-4-yl)-4-[(1-methylcyclopropyl)amino]furo[2,3-d]pyrimidine-5-carboxamide] was tested, and the IC50 was 10 to 100 nM.

Cc1cc(NC(=O)c2c(C)oc3ncnc(NC4(C)CC4)c23)no1 [Example 142, 6-Methyl-N-(5-methyl-1,2-oxazol-3-yl)-4-[(1-methylcyclopropyl)amino]furo[2,3-d]pyrimidine-5-carboxamide] was tested, and the IC50 was 10 to 100 nM.

In the case of Cc1oc2ncnc(NC3(C)CC3)c2c1C(=O)Nc1nccs1 [Example 143, 6-Methyl-4-[(1-methylcyclopropyl)amino]-N-(1,3-thiazol-2-yl)furo[2,3-d]pyrimidine-5-carboxamide], the IC50 is reported as 10 to 100 nM.

COc1ccc(NC(=O)c2c(C)oc3ncnc(NC4(C)CC4)c23)nc1 [Example 144, N-(5-Methoxypyridin-2-yl)-6-methyl-4-[(1-methylcyclopropyl)amino]furo[2,3-d]pyrimidine-5-carboxamide] gave an IC50 of 10 to 100 nM.

In the case of CCC1(NC(=O)c2c(C)oc3ncnc(NC4(C)CC4)c23)CC1 [Example 145, N-(1-Ethylcyclopropyl)-6-methyl-4-[(1-methylcyclopropyl)amino]furo[2,3-d]pyrimidine-5-carboxamide], the “PDE1b (pIC50)” value is reported as >8.

Work on Cc1oc2ncnc(NC3(C)CC3)c2c1C(=O)NC1(CO)CC1 [Example 146, N-[1-(Hydroxymethyl)cyclopropyl]-6-methyl-4-[(1-methylcyclopropyl)amino]furo[2,3-d]pyrimidine-5-carboxamide] yielded an IC50 of 10 to 100 nM.

Cc1oc2ncnc(NC3(C)CC3)c2c1C(=O)NC1(C(C)C)CC1 [Example 147, 6-Methyl-4-[(1-methylcyclopropyl)amino]-N-[1-(propan-2-yl)cyclopropyl]furo[2,3-d]pyrimidine-5-carboxamide] was tested, and the “PDE1b (pIC50)” value was >8.

For COCC1(NC(=O)c2c(C)oc3ncnc(NC4(C)CC4)c23)CC1 [Example 148, N-[1-(Methoxymethyl)cyclopropyl]-6-methyl-4-[(1-methylcyclopropyl)amino]furo[2,3-d]pyrimidine-5-carboxamide], the IC50 was 10 to 100 nM.

With Cc1oc2ncnc(NC3(C)CC3)c2c1C(=O)NC1(C2CC2)CC1 [Example 149, N-(1-Cyclopropylcyclopropyl)-6-methyl-4-[(1-methylcyclopropyl)amino]furo[2,3-d]pyrimidine-5-carboxamide] the IC50 was 10 to 100 nM.

Cc1oc2ncnc(NC3(C)CC3)c2c1C(=O)NC1(C2CCC2)CC1 [Example 150, N-(1-Cyclobutylcyclopropyl)-6-methyl-4-[(1-methylcyclopropyl)amino]furo[2,3-d]pyrimidine-5-carboxamide] was tested, and the “PDE1b (pIC50)” value was >8.

Cc1oc2ncnc(NC3(C)CC3)c2c1C(=O)NC1CC(c2ccc(F)cc2)C1 (stereo not drawn) [Example 151, N-[3-(4-Fluorophenyl)cyclobutyl]-6-methyl-4-[(1-methylcyclopropyl)amino]furo[2,3-d]pyrimidine-5-carboxamide] showed an IC50 of 10 to 100 nM.

In the case of Cc1oc2ncnc(NC3(C)CC3)c2c1C(=O)N1CCN(c2ncccc2F)CC1 [Example 152, 5-[4-(3-Fluoropyridin-2-yl)piperazine-1-carbonyl]-6-methyl-N-(1-methylcyclopropyl)furo[2,3-d]pyrimidin-4-amine], the “PDE1b (pIC50)” value is reported as >8.

For Cc1oc2ncnc(NC3(C)CC3)c2c1C(=O)N1CCN(c2ncc(F)cn2)CC1 [Example 153, 5-[4-(5-Fluoropyrimidin-2-yl)piperazine-1-carbonyl]-6-methyl-N-(1-methylcyclopropyl)furo[2,3-d]pyrimidin-4-amine], the IC50 was 10 to 100 nM.

In the case of Cc1oc2ncnc(NC3(C)CC3)c2c1C(=O)N1CCN(c2cccc(F)n2)CC1 [Example 154, 5-[4-(6-Fluoropyridin-2-yl)piperazine-1-carbonyl]-6-methyl-N-(1-methylcyclopropyl)furo[2,3-d]pyrimidin-4-amine], the “PDE1b (pIC50)” value is reported as >8.
